Measured values from PMC1971568 (British Journal of Cancer, 1990).
Read-outs that look alike come from different tables or passages of the source.

Tests used:
[1] = Localisation of antibody-enzyme conjugate: enzyme activity in tissues, CC3 model; conditions: tissue homogenate incubated at 37C with prodrug 34 µg ml-1 (87 µM)
[2] = in vivo, ip
[3] = tested on: carboxypeptidase G2 (CPG2); design: method as in Bagshawe et al., 1988; conditions: ref Bagshawe et al., 1988; cited from earlier work
LS174T colonic cell line = tested on: LS174T colonic cell line; design: method as in Springer et al., 1990; conditions: ref Springer et al., 1990; cited from earlier work
CC3 tumours = tested on: CC3 tumours; design: method as in Bagshawe et al., 1988; conditions: single course of two phase prodrug therapy (antibody-enzyme conjugate then prodrug); ref Bagshawe et al., 1988; cited from earlier work
[4] = Nu/Nu, mouse, in vivo, iv
[5] = tested on: human JAR choriocarcinoma cell line; conditions: cited from earlier work

Question: Which results are given for O=C(O)CC[C@H](NC(=O)c1ccc(N(CCCl)CCCl)cc1)C(=O)O [prodrug, 4-(bis (2-chloroethyl)amino) benzoyl-L-glutamic acid]?
Answer: Activation of prodrug by tissues of mice which did not receive conjugate [1]: No activation; AUC, area under plasma concentration versus time curve from zero to infinity ([2]; Nu/Nu, mouse): 7.09; Cl, total body clearance ([2]; Nu/Nu, mouse, 41 umol/kg): 1.18; Vd, apparent volume of distribution ([2]; Nu/Nu, mouse, 41 umol/kg): 0.07 L; AUC in liver ([2]; 41 umol/kg): 62; AUC in tumour ([2]; 41 umol/kg): 3.3; Affinity of the enzyme for prodrug [3]: very high affinity; Cytotoxicity against LS174T cells in culture (LS174T colonic cell line): very little cytotox- icity; Growth of CC3 tumours (CC3 tumours): marked inhibition of growth; AUC, area under plasma concentration versus time curve from zero to infinity [4]: 15.4; Cytotoxicity against JAR cells in culture [5]: very little cytotox- icity
